Patent US20240140957A1, “BRIDGED COMPOUNDS AS KRAS G12D INHIBITOR AND DEGRADER AND THE USE THEREOF” (BeiGene Switzerland GmbH, priority 2021, published 2024)

How the values were obtained:
GDP-loaded KRAS G12D = GDP-loaded KRAS G12D (Homo sapiens, UniProt P01116, G12D); test: KRAS G12D Probe Displacement Assay; assay type: binding; conditions: KRAS G12D 0.5 nM, biotinylated probe 2 4 nM; read-out: KRAS G12D Probe Displacement Assay IC50
GDP-loaded WT KRAS = GDP-loaded WT KRAS (Homo sapiens, UniProt P01116); test: KRAS WT Probe Displacement Assay; assay type: binding; conditions: WT KRAS 3 nM, biotinylated probe 1 60 nM; read-out: KRAS WT Probe Displacement Assay IC50
[1] = test system: pERK1/2 (THR202/TYR204) in AsPC-1 cells; test: pERK Assay (HTRF) in AsPC-1 cells; assay type: cell-based; conditions: Homo sapiens, ASPC1, 2 h compound treatment
Method: AsPC-1 cell line was used in this study. […] 30000 cells per well were seeded into a 96-well plate and incubated overnight. […] After 2 h compound treatment, cells were lysed, and the pERK1/2 (THR202/TYR204) level in the cell lysates was detected by HTRF kit (Cisbio). In brief, a total of 16 μL of cell lysate from each well of a 96-well plate was transferred to a 384-well white assay plate. Lysate from each well was incubated with 2 μL of Eu3+-cryptate (donor) labeled anti-phospho-ERK1/2 and 2 μL of D2 (acceptor) labeled anti-phospho-ERK1/2 antibodies (Cisbio) overnight in dark at room temperature. When donor and acceptor are in close proximity, excitation of the donor with laser triggers a Fluorescence Resonance Energy Transfer (FRET) towards the acceptor, which in turn fluoresces at 655 nm wavelength. FRET signals were measured using a PHERAstar FSX reader (BMG Labtech).

Chain of GDP-loaded WT KRAS (P01116 1-188 isoform P01116-2): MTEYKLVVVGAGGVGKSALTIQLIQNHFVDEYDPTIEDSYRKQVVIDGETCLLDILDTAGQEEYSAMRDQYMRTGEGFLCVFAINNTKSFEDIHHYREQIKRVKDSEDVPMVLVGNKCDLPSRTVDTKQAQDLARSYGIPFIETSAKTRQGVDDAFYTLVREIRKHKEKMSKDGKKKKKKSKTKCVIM
Chain of GDP-loaded KRAS G12D (P01116 1-188 isoform P01116-2 G12D): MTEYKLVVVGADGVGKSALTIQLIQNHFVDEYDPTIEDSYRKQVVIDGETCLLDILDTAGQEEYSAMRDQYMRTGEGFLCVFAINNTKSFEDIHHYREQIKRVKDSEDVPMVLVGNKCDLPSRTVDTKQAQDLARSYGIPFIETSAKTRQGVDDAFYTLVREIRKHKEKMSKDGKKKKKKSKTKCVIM

| Compound | IC50 (GDP-loaded KRAS G12D) [nM] | IC50 (GDP-loaded WT KRAS) [nM] | IC50 [1] [nM] |
| --- | --- | --- | --- |
| Nc1nc2c(-c3c(C(F)(F)F)cc4c(N5C6CNCC5COC6)nc(OC[C@@]56CCCN5C[C@H](F)C6)nc4c3F)ccc(F)c2s1 [Example E55, 4-(4-(3-oxa-7,9-diazabicyclo[3.3.1]nonan-9-yl)-8-fluoro-2-(((2R,7aS)-2-fluorotetrahydro-1H-pyrrolizin-7a(5H)-yl)methoxy)-6-(trifluoromethyl)quinazolin-7-yl)-7-fluorobenzo[d]thiazol-2-amine] | 0.25 | 2.7 | 59 |
| Cc1cc(N)nc(-c2c(C(F)(F)F)cc3c(N4CC5CCC(C4)N5)nc(OC[C@@]45CCCN4C[C@H](F)C5)nc3c2F)c1C(F)(F)F [Example E77, 6-(4-(3,8-diazabicyclo[3.2.1]octan-3-yl)-8-fluoro-2-(((2R,7aS)-2-fluorotetrahydro-1H-pyrrolizin-7a(5H)-yl)methoxy)-6-(trifluoromethyl)quinazolin-7-yl)-4-methyl-5-(trifluoromethyl)pyridin-2-amine] | 0.52 | 33 | 122 |
| Nc1cc(Cl)c(C(F)(F)F)c(-c2c(Cl)cc3c(N4CC5CCC(C4)N5)nc(OC[C@@]45CCCN4C[C@H](F)C5)nc3c2F)c1 [Example E80, 3-(4-(3,8-diazabicyclo[3.2.1]octan-3-yl)-6-chloro-8-fluoro-2-(((2R,7aS)-2-fluorotetrahydro-1H-pyrrolizin-7a(5H)-yl)methoxy)quinazolin-7-yl)-5-chloro-4-(trifluoromethyl)aniline] | 0.66 | 46 | 307 |
| C=C(C)c1cc2c(N3CC4CCC(C3)N4)nc(OC[C@@]34CCCN3C[C@H](F)C4)nc2c(F)c1-c1ccc(F)c2sc(N)nc12 [Example E69, 4-(4-(3,8-diazabicyclo[3.2.1]octan-3-yl)-8-fluoro-2-(((2R,7aS)-2-fluorotetrahydro-1H-pyrrolizin-7a(5H)-yl)methoxy)-6-(prop-1-en-2-yl)quinazolin-7-yl)-7-fluorobenzo[d]thiazol-2-amine] | 0.72 | 72 | 216 |
| Cc1cc(N)nc(-c2c(F)cc3c(N4CC5CCC(C4)N5)nc(OC[C@@]45CCCN4C[C@H](F)C5)nc3c2F)c1C(F)(F)F [Example E79, 6-(4-(3,8-diazabicyclo[3.2.1]octan-3-yl)-6,8-difluoro-2-(((2R,7aS)-2-fluorotetrahydro-1H-pyrrolizin-7a(5H)-yl)methoxy)quinazolin-7-yl)-4-methyl-5-(trifluoromethyl) pyridin-2-amine] | 1.1 | 178 | 153 |
| CN(C)CC1(COc2nc(N3CC4CCC(C3)N4)c3cc(Cl)c(-c4ccc(F)c5sc(N)nc45)c(F)c3n2)CC1 [Example E70, 4-(4-(3,8-diazabicyclo[3.2.1]octan-3-yl)-6-chloro-2-((1-((dimethylamino)methyl)cyclopropyl)methoxy)-8-fluoroquinazolin-7-yl)-7-fluorobenzo[d]thiazol-2-amine] | 0.35 | 32 | 927 |
| Oc1cccc(F)c1-c1c(Cl)cc2c(N3CC4CCC(C3)N4)nc(OC[C@@]34CCCN3C[C@H](F)C4)nc2c1F [Example E81, 2-(4-(3,8-diazabicyclo[3.2.1]octan-3-yl)-6-chloro-8-fluoro-2-(((2R,7aS)-2-fluorotetrahydro-1H-pyrrolizin-7a(5H)-yl)methoxy)quinazolin-7-yl)-3-fluorophenol] | 6.9 | 990 | 2380 |
| Nc1nc2c(-c3c(C(F)(F)F)cc4c(N5CC6CCC(C5)N6)nc(OC[C@@]56CCCN5C[C@H](F)C6)nc4c3F)ccc(F)c2s1 [Example E52, 4-(4-(3,8-diazabicyclo[3.2.1]octan-3-yl)-8-fluoro-2-(((2R,7aS)-2-fluorotetrahydro-1H-pyrrolizin-7a(5H)-yl)methoxy)-6-(trifluoromethyl)quinazolin-7-yl)-7-fluorobenzoI[d]thiazol-2-amine] | 0.36 | 3 | 48 |
| CC(F)CNC1C[C@H]2CC[C@@H]1N2c1nc(OC[C@@]23CCCN2C[C@H](F)C3)nc2c(F)c(-c3ccc(F)c4sc(N)nc34)c(C(F)(F)F)cc12 (stereo partly drawn) [Example E86, 7-fluoro-4-(8-fluoro-4-((1S,4R)-2-((2-fluoropropyl)amino)-7-azabicyclo[2.2.1]heptan-7-yl)-2-(((2R,7aS)-2-fluorotetrahydro-1H-pyrrolizin-7a(5H)-yl)methoxy)-6-(trifluoromethyl)quinazolin-7-yl)benzo[d]thiazol-2-amine] | 1.4 | 16 | 320 |
| Cc1cc(N)nc(-c2c(Cl)cc3c(N4C5CNCC4COC5)nc(OC[C@@]45CCCN4C[C@H](F)C5)nc3c2F)c1C(F)(F)F (stereo in doubt) [Example E88, 6-(4-(3-oxa-7,9-diazabicyclo[3.3.1]nonan-9-yl)-6-chloro-8-fluoro-2-((2-fluorotetrahydro-1H-pyrrolizin-7a(5H)-yl)methoxy)quinazolin-7-yl)-4-methyl-5-(trifluoromethyl)pyridin-2-amine] | 1.7 | 49 | 172 |
| COCCNC1C[C@H]2CC[C@@H]1N2c1nc(OC[C@@]23CCCN2C[C@H](F)C3)nc2c(F)c(-c3ccc(F)c4sc(N)nc34)c(C(F)(F)F)cc12 (stereo partly drawn) [Example E58, 7-fluoro-4-(8-fluoro-2-(((2R,7aS)-2-fluorotetrahydro-1H-pyrrolizin-7a(5H)-yl)methoxy)-4-((1S,4R)-2-((2-methoxyethyl)amino)-7-azabicyclo[2.2.1]heptan-7-yl)-6-(trifluoromethyl)quinazolin-7-yl)benzo[d]thiazol-2-amine] | 0.5 | 7.6 | 190 |
| CCc1cc2c(N3CC4CCC(C3)N4)nc(OC[C@@]34CCCN3C[C@H](F)C4)nc2c(F)c1-c1ccc(F)c2sc(N)nc12 [Example E67, 4-(4-(3,8-diazabicyclo[3.2.1]octan-3-yl)-6-ethyl-8-fluoro-2-(((2R,7aS)-2-fluorotetrahydro-1H-pyrrolizin-7a(5H)-yl)methoxy)quinazolin-7-yl)-7-fluorobenzo[d]thiazol-2-amine] | 0.45 | 9.9 | 95 |
| C=Cc1cc2c(N3CC4CCC(C3)N4)nc(OC[C@@H]3C[C@@H](F)CN3C)nc2c(F)c1-c1ccc(F)c2sc(N)nc12 [Example E66, 4-(4-((3,8-diazabicyclo[3.2.1]octan-3-yl)-8-fluoro-2-(((2S,4R)-4-fluoro-1-methylpyrrolidin-)-yl)methoxy)-6-vinylquinazolin-7-yl)-7-fluorobenzo[d]thiazol-2-amine] | 2.2 | 72 | 480 |
| Nc1nc2c(-c3c(OC(F)(F)F)cc4c(N5CC6CCC(C5)N6)nc(OC[C@@]56CCCN5C[C@H](F)C6)nc4c3F)ccc(F)c2s1 [Example E87, 4-(4-(3,8-diazabicyclo[3.2.1]octan-3-yl)-8-fluoro-2-(((2R,7aS)-2-fluorotetrahydro-1H-pyrrolizin-7a(5H)-yl)methoxy)-6-(trifluoromethoxy)quinazolin-7-yl)-7-fluorobenzo[d]thiazol-2-amine] | 0.24 | 25 | 112 |
| Nc1nc2c(-c3c(C(F)(F)F)cc4c(N5CC6CCC(C5)N6)nc(OC[C@@]56CCCN5C[C@H](F)C6)nc4c3Cl)ccc(Cl)c2s1 [Example E82, 4-(4-(3,8-diazabicyclo[3.2.1]octan-3-yl)-8-chloro-2-(((2R,7aS)-2-fluorotetrahydro-1H-pyrrolizin-7a(5H)-yl)methoxy)-6-(trifluoromethyl)quinazolin-7-yl)-7-chlorobenzo[d]thiazol-2-amine] | 0.3 | 5 | 64 |
| C[C@@H](CN1CCC(F)CC1(C)C)Oc1nc(N2CC3CCC(C2)N3)c2cc(C(F)(F)F)c(-c3ccc(F)c4sc(N)nc34)c(F)c2n1 (stereo partly drawn) [Example E72, 4-(4-(3,8-diazabicyclo[3.2.1]octan-3-yl)-8-fluoro-2-(((2S)-1-(4-fluoro-2,2-dimethylpiperidin-1-yl)propan-2-yl)oxy)-6-(trifluoromethyl)quinazolin-7-yl)-7-fluorobenzo[d]thiazol-2-amine] | 3.9 | 120 | 1080 |
| Nc1cc(Cl)c(C(F)(F)F)c(-c2c(Cl)cc3c(N4CC5CCC(C4)N5)nc(OC[C@@]45CCCN4C[C@H](F)C5)nc3c2F)n1 [Example E65, 6-(4-(3,8-diazabicyclo[3.2.1]octan-3-yl)-6-chloro-8-fluoro-2-(((2R,7aS)-2-fluorotetrahydro-1H-pyrrolizin-7a(5H)-yl)methoxy)quinazolin-7-yl)-4-chloro-5-(trifluoromethyl)pyridin-2-amine] | 0.44 | 20.5 | 65 |
| CC(C)c1cc2c(N3CC4CCC(C3)N4)nc(OC[C@@]34CCCN3C[C@H](F)C4)nc2c(F)c1-c1ccc(F)c2sc(N)nc12 [Example E71, 4-(4-(3,8-diazabicyclo[3.2.1]octan-3-yl)-8-fluoro-2-(((2R,7aS)-2-fluorotetrahydro-1H-pyrrolizin-7a(5H)-yl)methoxy)-6-isopropylquinazolin-7-yl)-7-fluorobenzo[d]thiazol-2-amine] | 0.59 | 37.8 | 137 |
